Laboratory results from publication PMC8155056, “Cooperative inhibition of SNARE-mediated vesicle fusion by α-synuclein monomers and oligomers” (Scientific Reports, 2021).
Entries after “also recorded” stand apart in the source; their conditions may differ.

Assays:
Syb2-carrying v-vesicles = experiment: Cryo-EM of v-vesicle clustering
Protocol: Then, we tested the effect on vesicle clustering. We have proposed that α-Syn oligomers inhibit vesicle fusion by clustering synaptic vesicle mimics in vitro, thereby limiting the number of vesicles available for docking. A few micromolar α-Syn monomer is also known to induce vesicle clustering[27],[29],[30],[38]. Thus, it is possible that the α-Syn monomer by itself cannot induce vesicle clustering at the low concentration (less than 1 μM) that we applied in this work but assists α-Syn oligomers in clustering vesicles. We obtained images of v-vesicles treated with α-Syn oligomers in the presence and absence of monomers using cryo-electron microscopy (cryo-EM) (Fig. 2). The molar ratio of lipid: α-Syn oligomers: α-Syn monomers was 200:1:20. When more than ten vesicles were attached together, we assigned them as a vesicle clustering. In the absence of α-Syn, v-vesicles appeared without clustering (Fig. 2A). […] Cryo-EM could not resolve α-Syn oligomers because of its resolution limit. Since α-Syn oligomers are known to inhibit vesicle fusion through binding to the N-terminal domain of Syb2[15], we tested if their specific interactions with Syb2 are responsible for clustering the vesicles. We reconstituted v-vesicles with Syb2 lacking the N-terminal region (nt-Syb2, amino acids 29–116) and incubated them with α-Syn oligomers. […] While 22.7 ± 1.2 vesicles consisted of a cluster with α-Syn oligomers, 123.5 ± 11.5 vesicles clustered after the addition of α-Syn monomers together with oligomers. […] Although it is difficult to quantify the fraction of the flattened region, this structure was not observed in images of vesicles treated with α-Syn oligomers only (Fig. 2C, enlarged image). The addition of α-Syn monomer with α-Syn oligomers seemed to induce tighter adhesion between the vesicles.
v-Vesicles were incubated with α-Syn (molar ratio of lipid:α-Syn oligomer: monomer = 200:1:20). A 200-mesh carbon grid (Electron Microscopy Sciences) was glow-discharged using the PELCO easiGlow plasma cleaning system (Ted Pella, Inc.). […]

[1] = tested on: neuronal SNARE-mediated vesicle fusion (t-SNAREs syntaxin HT/SNAP25 and v-SNARE Syb2); experiment: In vitro lipid-mixing (FRET) assay of SNARE-mediated vesicle fusion, v-vesicles with PS; type: biochemical
Source text: To address this question, we performed an in vitro lipid-mixing assay using fluorescently labeled proteoliposomes[31],[32]. In this assay, t-SNAREs [complexes of syntaxin Habc-trunctated (HT) (amino acids 168–288 of syntaxin 1A, lacking the Habc domain) and synaptosomal-associated protein-25 (SNAP25)] and v-SNARE Syb2 were incorporated into two different liposomes (t- and v-vesicles, respectively)[15],[31]. When t-vesicles doped with donor dyes (T) and v-vesicles doped with acceptor dyes (V) were fused together through SNARE complex formation[31],[33],[34], the lipids from the two types of vesicles mixed (Fig. 1B). This lipid mixing was monitored by the fluorescence resonance energy transfer (FRET) signal between 1,1′-dioctadecyl-3,3,3′,3′-tetramethylindocarbocyanine perchlorate (DiI) and 1,1′-dioctadecyl3,3,3′,3′-tetramethylindodicarbocyanine perchlorate (DiD) dyes (Supplementary Fig. S1B). α-Syn oligomers were prepared by incubating the α-Syn monomer (15 μM) with dopamine (100 μM) at 37 °C for 72 h (Supplementary Fig. S2A) and purified using size exclusion chromatography (Supplementary Fig. S2B and C)[15],[35]–[37]. We have estimated that the oligomers contain approximately 17 α-Syn monomeric subunits in our previous work[15]. Without the addition of α-Syn oligomers, the T-V mixture presented a significant mixing of lipids (Fig. 1C, the gray line).
We prepared three 30-residue peptides (CFα1, CFα2, and CFα3) that were mainly derived from the C-terminal domain of α-Syn (Anygen, South Korea) (Fig. 5A; Table 1) because the C-terminal domain of α-Syn (a.a. 96–140) is known to bind to the N-terminal domain of Syb2[26]. We confirmed the binding between the peptide and Syb2 using fluorescence anisotropy assay (Supplementary Fig. S8). […]
(§1) t-Vesicles labeled with DiI and v-vesicles labeled with DiD were mixed together to reach a 20 μM lipid concentration. […] We used 532-nm light for excitation and detected the FRET signal (at 690 nm) every 10 s using a temperature-controlled fluorescence spectrophotometer (Cary Eclipse, Agilent) at 37 °C.

[2] = tested on: SNARE-mediated vesicle docking; conditions: nonaggregated α-Syn monomer, 10 μM; ref [42]; cited from earlier work
Source text: For the molecular mechanism of the inhibition, we proposed that α-Syn oligomers interfere with vesicle docking by clustering vesicles. […] Nonaggregated α-Syn or its monomer uses its interaction with Syb2 to help SNARE complex assembly[26] and induces the clustering of vesicles or Syb2, which promotes SNARE complex formation[25],[30]. […] All the functions of the α-Syn monomer are beneficial for neurotransmitter release.

[3] = tested on: α-Syn oligomers and monomers; experiment: Western blot of α-Syn monomer incubated with preformed oligomers; conditions: α-Syn monomer (500 nM) with preformed oligomers (10 nM), no dopamine, 37 °C, 12 h / up to 10 hours (Fig. S4)
Protocol: We first tested whether the incubation of the α-Syn monomer with oligomers increases the amount of α-Syn oligomers. […] This is consistent with previous work showing that dopamine-modified α-Syn oligomers are not seeding competent.
Purified proteins were subjected to 15% SDS/PAGE and then transferred to polyvinylidene fluoride membranes (Bio-Rad), which were then blocked with 5% (w/v) skim milk in Tris-buffered saline with 0.1% Tween 20 detergent (TBST) (500 mM Tris, pH 8.5; 150 mM NaCl; […]) for 1 h and incubated with α-Syn primary antibody [sc-52979 (Santa Cruz Biotechnology) at a 1:750 dilution factor] for 12 h at 4 °C. The membrane was rinsed with TBST, incubated with anti-mouse IgG peroxidase secondary antibody (Sigma; 1:2500 dilution factor), washed again with TBST, and reacted with chemiluminescent substrate solution (ThermoFisher Scientific, SuperSignal West Pico Chemiluminescent Substrate) for 1 min. Resulting bands were detected using an LAS-4000 instrument (Fujifilm Life Science).
Fig. S4. […] Vesicle compositions are 73% PC, 20% cholesterol, and 7% PS. α-Syn monomers (500 nM) were incubated with the purified dopamine-induced oligomers (10 nM) at 37 ℃ for up to 10 hours and then the mixtures were applied to the Western blot analysis and probed with anti–α-Syn antibody. […] The image was edited by Adobe Illustrator CS6 (Adobe).

[4] = tested on: SNARE-mediated vesicle fusion (v-vesicles without PS); experiment: In vitro lipid-mixing (FRET) assay with v-vesicles prepared with 0% PS; type: biochemical; conditions: v-vesicles 0% PS
Protocol: Figure 3 α-Syn monomer interactions with the lipid membrane enable cooperative inhibition of vesicle fusion. (A) The effect of the lipid-binding-deficient mutant of the α-Syn monomer (T44P/A89P) on fusion inhibition. v-Vesicles (V) were incubated with the T44P/A89P monomer for 10 min, and then α-Syn oligomers and t-vesicles (T) were added to the premixture. T and V (20 μM lipid concentration) were mixed together at 37 °C without α-Syn (T-V, gray line). […] A control measurement using soluble Syb2 confirmed that lipid mixing was driven by SNARE complex formation (beige line). Bar graphs were obtained from the values at 2000s from the FRET measurements (± SEM, N = 3). *P < 0.05, **P < 0.01, ***P < 0.001 by Student’s t test. (B) The effect of the negatively charged lipid (PS) on fusion inhibition. v-Vesicles (V) prepared with 0% PS were used in the measurement. v-Vesicles without PS were incubated with wild-type α-Syn monomer, and then t-vesicles (T) and oligomers were added to the premixture. […]
as §1

α-synuclein [α-Syn monomer]
clustering of v-vesicles (Syb2-carrying v-vesicles; α-Syn monomer alone, lipid:monomer 10:1 (5 μM:0.5 μM)): no clustering of v-vesicles was observed | clustering of v-vesicles (Syb2-carrying v-vesicles; α-Syn monomer and oligomers, lipid:oligomers:monomers 200:1:20): they formed larger clusters; also recorded: The vesicle cluster was significantly larger than that observed in (C) | number of vesicles per cluster (Syb2-carrying v-vesicles; α-Syn monomers together with oligomers, lipid:oligomers:monomers 200:1:20): 123.5 ± 11.5 vesicles | fusion efficiency (relative lipid mixing) ([1]; 10 nM α-Syn oligomers + 850 nM α-Syn monomer, monomer pre-incubated with V 10 min, 37 °C, at 1800 s, N = 3): 25% | effect on fusion inhibition by oligomers ([1]; wild-type α-Syn monomer together with 10 nM α-Syn oligomers, 37 °C): more severe inhibition of vesicle fusion between T and V was observed as the concentration of α-Syn monomer increased; also recorded: the FRET signal was lower than that of the α-Syn oligomer-treated vesicle fusion | effect on lipid mixing ([1]; α-Syn monomer alone, 200–850 nM, 10 min incubation with v-vesicles, N = 3): negligible effect on lipid mixing; also recorded: no effect on SNARE-mediated lipid mixing; also recorded: negligible effect on SNARE-mediated vesicle fusion | effect on SNARE-dependent vesicle docking [2]: beneficial for SNARE-dependent vesicle docking | change in amounts of oligomers and monomers [3]: No change in the intensities of the oligomers, multimers, and monomer was observed; also recorded: no change in the amounts of oligomers and monomers was observed | recovery of SNARE-mediated lipid mixing ([4]; 2 μM wild-type α-Syn monomer with α-Syn oligomers, 37 °C, at 2000 s, N = 3): ~100% | effect on fusion inhibition by oligomers ([4]; wild-type α-Syn monomer (200 nM to 2 μM) with α-Syn oligomers): the FRET signal increased; also recorded: attenuated
